Measurements as given in the RepoRT retention time repository (doi:10.1016/j.foodchem.2021.129757).
One block for each molecule: values may come before it.

What was measured:
Details in all cases: stereoisomer not certain
[1] = RP, 150 × 2.1 mm, 2.6 µm, 40 °C, 0.35 mL/min, estimated dead time 0.94 min; A: water + 0.1% formic acid, pH 3; B: acetonitrile + 0.1% formic acid, pH 3; gradient (min/%B) 0/0 1/5 7/45 8.5/80 10.5/80 11/5 12/5
[2] = RP, 150 × 2.1 mm, 2.6 µm, 40 °C, 0.35 mL/min, estimated dead time 0.94 min; A: water + 0.1% formic acid, pH 3; B: acetonitrile + 0.1% formic acid, pH 3; gradient (min/%B) 0/0 1/0 12.5/100 14/100 14.2/0 15/0
[3] = RP, Agilent InfinityLab Poroshell 120 EC-C18, 100 × 3 mm, 2.7 µm, 25 °C, 0.4 mL/min, estimated dead time 1.1 min; A: water + 0.1% formic acid, pH 3; B: acetonitrile + 0.1% formic acid, pH 3; gradient (min/%B) 0/5 10/25 20/40 24/90 25/90 26/5 30/5
[4] = RP, Waters ACQUITY UPLC HSS T3, 100 × 2.1 mm, 1.8 µm, 30 °C, 0.4 mL/min, estimated dead time 0.55 min; A: water + 0.1% formic acid, pH 3; B: acetonitrile + 0.1% formic acid, pH 3; gradient (min/%B) 0/0 2/0 15/100 22/100 22.1/0 26/0
[5] = RP, Waters Atlantis T3, 100 × 2.1 mm, 3 µm, 40 °C, 0.3 mL/min, estimated dead time 0.73 min; A: water + 0.1% trifluoroacetic acid, pH 2; B: acetonitrile + 0.1% trifluoroacetic acid, pH 2; gradient (min/%B) 0/10 1/10 6/40 7/50 8/50 14/70 16/80 20/10 25/10
[6] = RP, Merck LiChrospher RP-18, 250 × 4 mm, 5 µm, 35 °C, 0.3 mL/min, estimated dead time 6.7 min; A: water + 0.5% formic acid; B: acetonitrile + 0.5% formic acid; gradient (min/%B) 0/5 10/5 30/15 45/20 65/20 95/54 110/63 115/5 135/5
[7] = RP, Waters ACQUITY UPLC BEH C18, 100 × 2.1 mm, 1.7 µm, 65 °C, 0.4 mL/min, estimated dead time 0.55 min; A: water + 0.1% formic acid, pH 3; B: 80% acetonitrile + 20% acetone + 0.1% formic acid, pH 3; gradient (min/%B) 0/0 5/100 5.5/0 6/0
[8] = RP, Waters ACQUITY UPLC HSS T3, 100 × 2.1 mm, 50 °C; A: water + 0.1% formic acid, pH 3; B: 30% methanol + 70% acetonitrile + 0.1% formic acid, pH 3; gradient (min/%B) 0/5 1/8 2/15 3/40 4/70 4.5/100 5/100 6.4/100 6.6/5 6.8/5 7/5
[9] = RP, Waters ACQUITY UPLC BEH Shield RP18, 150 × 2.1 mm, 1.7 µm, 40 °C, 0.4 mL/min, estimated dead time 0.83 min; A: water + 0.1% formic acid, pH 3; B: acetonitrile + 0.1% formic acid, pH 3; gradient (min/%B) 0/0 30/50 31/100 37/100 37.1/0
[10] = RP, Phenomenex Synergi Hydro-RP, 250 × 2 mm, 4 µm, 25 °C, 0.2 mL/min, estimated dead time 2.5 min; A: water + 0.1% formic acid, pH 3; B: acetonitrile + 0.1% formic acid, pH 3; gradient (min/%B) 0/0.5 7/0.5 12/12.5 25/16.3 47/35 48/65 50/65 50.1/0.5
[11] = RP, 50 × 0.5 mm, 2.7 µm, 35 °C, 0.01 mL/min, estimated dead time 0.62 min; A: water + 0.1% formic acid, pH 3; B: acetonitrile + 0.1% formic acid, pH 3; gradient (min/%B) 0/5 12/95 14/95 16/5
[12] = RP, Waters ACQUITY UPLC BEH Shield RP18, 100 × 2.1 mm, 1.7 µm, 30 °C, 0.6 mL/min, estimated dead time 0.37 min; A: water + 0.1% formic acid, pH 3; B: acetonitrile + 0.1% formic acid, pH 3; gradient (min/%B) 0/0 2/0 7/10 22/95 22.1/0 26/0
[13] = RP, Phenomenex Luna Omega Polar C18, 100 × 2.1 mm, 1.6 µm, 40 °C, 0.5 mL/min, estimated dead time 0.44 min; A: water + 0.5% formic acid; B: acetonitrile + 0.5% formic acid; gradient (min/%B) 0/5 3/50 3.1/100 5/100 5.1/5 7/5
[14] = RP, Phenomenex Synergi Hydro-RP, 150 × 2 mm, 4 µm, 30 °C, 0.5 mL/min, estimated dead time 0.6 min; A: water + 0.1% formic acid, pH 3; B: acetonitrile + 0.1% formic acid, pH 3; gradient (min/%B) 0/5 1/5 35/45 40/100 45/100
[15] = RP, Phenomenex Luna C18, 150 × 4.6 mm, 3 µm, 25 °C, 0.5 mL/min, estimated dead time 3.2 min; A: water + 0.1% formic acid, pH 3; B: acetonitrile + 0.1% formic acid, pH 3; gradient (min/%B) 0/0 30/30 35/40 50/80 52/80 60/0 65/0
[16] = RP, Agilent ZORBAX Eclipse XDB-C18, 100 × 2.1 mm, 1.8 µm, 50 °C, 0.4 mL/min, estimated dead time 0.55 min; A: water + 0.1% formic acid, pH 3; B: methanol + 0.1% formic acid, pH 3; gradient (min/%B) 0/2 10/100 14.5/100 14.51/2 16.5/2

Compound: Oc1cc(O)c2c(c1)OC(c1cc(O)c(O)c(O)c1)C(O)C2 (single isomer, unassigned; (-)) [(-)-Epigallocatechin]
LC retention time [1]: 4.07 min | LC retention time [2]: 4.2 min | LC retention time [3]: 4.79 min | LC retention time [4]: 7.91 min | LC retention time [5]: 2.05 min

Compound: O=Cc1ccc(CO)o1 [5-Hydroxymethylfurfural]
LC retention time [6]: 24.2 min

Compound: COc1cc(-c2oc3cc(O)cc(O)c3c(=O)c2OC2OC(CO)C(O)C(O)C2O)ccc1O (stereo unspecified) [Isorhamnetin-3-O-glucoside]
LC retention time [10]: 38.7 min | LC retention time [6]: 78.5 min | LC retention time [5]: 7.94 min

Compound: COc1cc(-c2oc3cc(O)cc(O)c3c(=O)c2OC2OC(COC3OC(C)C(O)C(O)C3O)C(O)C(O)C2O)ccc1O (stereo unspecified) [Isorhamnetin-3-O-rutinoside]
LC retention time [1]: 5.95 min | LC retention time [2]: 5.8 min | LC retention time [6]: 71.3 min

Compound: CCC=CCC1C(=O)CCC1CC(=O)O (stereo unspecified) [Jasmonic Acid]
LC retention time [6]: 96.2 min

Compound: OC1C(O)C(O)C(O)C(O)C1O (stereo unspecified) [Myo-inositol]
LC retention time [11]: 2.65 min | LC retention time [8]: 0.461 min | LC retention time [12]: 0.58 min | LC retention time [9]: 1.01 min | LC retention time [4]: 0.86 min | LC retention time [13]: 0.54 min

Compound: O=S(=O)(O)Oc1c(O)cccc1O [Pyrogallol-2-O-sulfate]
LC retention time [14]: 3.77 min

Compound: Oc1cccc(O)c1O [Pyrogallol]
LC retention time [1]: 1.87 min | LC retention time [2]: 2.06 min | LC retention time [5]: 1.93 min

Compound: O=c1c(O)c(-c2ccc(OS(=O)(=O)O)c(O)c2)oc2cc(OS(=O)(=O)O)cc(O)c12 [Quercetin disulfate]
LC retention time [11]: 4.84 min | LC retention time [15]: 31.6 min

Compound: C[N+]1(C)CCCC1C(=O)[O-] (stereo unspecified) [Stachydrine]
LC retention time [8]: 0.545 min | LC retention time [12]: 0.65 min | LC retention time [9]: 1.06 min | LC retention time [4]: 1.03 min | LC retention time [13]: 0.61 min

Compound: Cc1c(C)c2c(c(C)c1O)CCC(C)(CCCC(C)CCCC(C)CCCC(C)C)O2 (stereo not drawn) [alpha-tocopherol]
LC retention time [11]: 13.2 min | LC retention time [7]: 5.55 min | LC retention time [12]: 18.1 min | LC retention time [16]: 12.5 min | LC retention time [4]: 15.6 min | LC retention time [13]: 4.03 min

Compound: CCC(CCC(C)C1CCC2C3CC=C4CC(O)CCC4(C)C3CCC12C)C(C)C (stereo not drawn) [beta-sitosterol]
LC retention time [13]: 3.92 min

Compound: O=C(O)c1cc(O)c(O)c(O)c1 [gallic acid]
LC retention time [14]: 2.13 min

Compound: OCCc1ccc(O)c(O)c1 [hydroxytyrosol]
LC retention time [14]: 5 min

Compound: OC1C(O)C(O)C(O)C(O)C1O (stereo unspecified) [myo-inositol]
LC retention time [14]: 8.53 min

Compound: C[N+]1(C)CCCC1C(=O)[O-] (stereo unspecified) [stachydrine (proline betaine)]
LC retention time [14]: 0.844 min

Compound: C[n+]1cccc(C(=O)[O-])c1 [trigonelline]
LC retention time [14]: 0.731 min

Now from value to molecule:

LC retention time [7]: 4.02 min | LC retention time [8]: 4.52 min | LC retention time [5]: 16.3 min
Compound: CC(C)c1cc2c(c(O)c1O)C13CCCC(C)(C)C1CC2OC3=O (stereo unspecified) [Carnosol]

LC retention time [6]: 49.6 min | LC retention time [9]: 6.43 min
Compound: CC1OC(OCC2OC(Oc3cc4c(O)cc(O)cc4[o+]c3-c3ccc(O)c(O)c3)C(O)C(O)C2O)C(O)C(O)C1O (stereo unspecified) [Cyanidin-3-O-rutinoside]

LC retention time [6]: 92.7 min
Compound: CCOC(=O)C=Cc1ccc(O)c(O)c1 [Ethyl Caffeate]

LC retention time [6]: 53.9 min
Compound: CCOC(=O)c1cc(O)c(O)c(O)c1 [Ethyl Gallate]

LC retention time [10]: 29.1 min | LC retention time [1]: 5.11 min | LC retention time [2]: 5.13 min | LC retention time [5]: 6.4 min
Compound: O=c1c(OC2OC(CO)C(O)C(O)C2O)c(-c2ccc(OC3OC(CO)C(O)C(O)C3O)c(O)c2)oc2cc(O)cc(O)c12 (stereo unspecified) [Quercetin-3,4'-diglucoside]

LC retention time [7]: 2.11 min | LC retention time [1]: 5.66 min | LC retention time [2]: 5.74 min | LC retention time [6]: 58.1 min
Compound: COc1cc(C=O)cc(OC)c1O [Syringaldehyde]

LC retention time [11]: 7.8 min | LC retention time [12]: 16.9 min | LC retention time [9]: 26.7 min | LC retention time [16]: 8.59 min | LC retention time [3]: 22.8 min | LC retention time [15]: 49 min | LC retention time [4]: 13.7 min | LC retention time [14]: 36.5 min | LC retention time [13]: 3.93 min
Compound: COc1ccc(-c2cc(=O)c3c(OC)c(OC)c(OC)c(OC)c3o2)cc1 [Tangeretin]

LC retention time [6]: 38.7 min
Compound: OCCc1ccc(O)cc1 [Tyrosol]

LC retention time [10]: 38.3 min | LC retention time [5]: 7.37 min
Compound: O=c1c(O)c(-c2ccc(O)cc2)oc2cc(OC3OC(CO)C(O)C(O)C3O)cc(O)c12 (stereo unspecified) [kaempferol-7-O-glucoside]

LC retention time [10]: 3.87 min | LC retention time [6]: 8.06 min
Compound: O=C(O)CC(O)C(=O)O (stereo unspecified) [malic acid]

LC retention time [1]: 7.28 min | LC retention time [2]: 7.02 min | LC retention time [6]: 90.1 min | LC retention time [9]: 15.8 min
Compound: COc1cc(C=CC(=O)O)cc(OC)c1OC [o-Methylsinapic acid]

LC retention time [14]: 4.64 min
Compound: Cn1cnc2c1c(=O)[nH]c(=O)n2C [theobromine]

LC retention time [14]: 21 min
Compound: O=c1oc2cc(O)ccc2c2ccc(O)cc12 [urolithin A]

LC retention time [14]: 28.6 min
Compound: O=c1oc2cc(O)ccc2c2ccccc12 [urolithin B]

LC retention time [14]: 42 min
Compound: CC1CCC2(C(=O)O)CCC3(C)C(=CCC4C5(C)CCC(O)C(C)(C)C5CCC43C)C2C1C (stereo unspecified) [ursolic acid]

LC retention time [14]: 9.27 min
Compound: COc1cc(C(=O)O)ccc1O [vanillic acid]

LC retention time [14]: 8.67 min
Compound: COc1cc(C=O)ccc1O [vanillin]
